Patent US20220313622A1, “PHYTOCANNABINOIDS FOR PREVENTING OR TREATING NON-ALCOHOLIC FATTY LIVER DISEASE, DYSLIPIDEMIA, AND TYPE 2 DIABETES” (YISSUM RESEARCH DEVELOPMENT COMPANY OF THE HEBREW …, priority 2019, published 2022)

Assays:
obese mice = details: cited from earlier work
rats on high-fat diets = details: cited from earlier work
[1] = test system: human hepatoma HepG2 cells; experiment: Oleate:Palmitate-induced lipid accumulation in hepatocytes (Nile-Red); format: cell-based; details: CBD 20 μM; 0.3 mM oleate:palmitate 2:1; 24 hr; FIG. 1
Protocol: To test whether CBG and/or CBD have the ability to reduce lipid accumulation in hepatocytes, we have utilized an in vitro model of fat accumulation in hepatocytes. Briefly, human hepatoma HepG2 cells were maintained at 37° C. in 5% CO2 in DMEM medium supplemented with 10% FCS, 2 mM 1-glutamine, 1 mM sodium pyruvate, 100 U/mL penicillin and […] streptomycin. Free fatty acids (2:1, molar ratio, oleic and palmitic acids) were mixed with bovine serum albumin (BSA). Cells were incubated with fatty acid-BSA complex in FCS-free culture medium at 0.3 mM final concentration of fatty acid and 1% of BSA. Control cell cultures were incubated with medium containing the vehicle. Compounds were tested in a range of concentrations (as detailed in each figure) in the presence/absence of fatty acids. The synergistic effect between two compounds was also tested once validating their individual effect. After 24 hr of incubation with the compounds, the cells were washed, incubated with 1 μg/mL mixture of Nile-Red/Hoechst solution for 15 mins at 37° C. protected from light. Fluorescence was measured by the Cytation-3 plate reader at ex:488 nm/em:550 for Nile-Red and Hoechst, respectively. Results were normalized to total protein levels of each well, and presented as a change in the accumulation of lipids in comparison with Vehicle-treated group.

[2] = test system: high-fat diet-induced obese mice; experiment: Hepatic steatosis in high-fat diet-induced obese mice; format: in vivo, mouse; details: 28 days ip, CBG 25 mg/kg/day; for HFD-induced hepatic steatosis (liver triglyceride levels, fat vacuoles and ballooning in hepatocytes): CBD 10 mg/kg/day, alone or combined, FIGS. 5A, B
Protocol: (§1) Next, the inventors tested whether the isolated and combined effect of phytocannabinoids has the ability to reverse fatty liver (hepatic steatosis) and improve metabolism in high-fat diet-induced obese mouse. Briefly, six weeks old, male C57Bl/6J mice were fed ad libitum with a high-fat diet (HFD; D12492; 60% of calories from fat, 20% from protein, and 20% from carbohydrates; Research Diets) or a mouse standard diet (STD; NIH no. 31 rodent diet) for 14 weeks. Then, the mice were treated for 28 days with CBD (10 mg/kg/day, ip), CBG (25 mg/kg/day, ip), CBD+CBG (10 mg/kg/day+25 mg/kg/day, ip respectively) or vehicle (EtOH:cremophor:saline; 1:1:18). The mouse groups were labeled as defined here: mice on a STD treated with vehicle (STD-Veh), mice on a HFD treated with vehicle (HFD-Veh), mice on a HFD treated with CBD (HFD-CBD), mice on a HFD treated with CBG (HFD-CBG), and mice on a HFD treated with CBD+CBG (HFD-CBD+CBG).
Hepatic steatosis (Fatty liver) was measured by (i) quantifying the amount of triglycerides and cholesterol in the liver by using a specific lipid extraction method followed by colorimetric chemical analyses using the Cobas C111 Chemistry Analyzer (Roche, Germany), and (ii) evaluating the reversal of fatty liver by histology. Briefly, paraffin-embedded liver sections (5 tiM) were be used to evaluate hepatic morphology (using H & E staining).

[3] = test system: high-fat diet-induced obese mice; experiment: Lipid balance (circulating triglycerides and cholesterol) in high-fat diet-induced obese mice; format: in vivo, mouse; details: 28 days ip; for serum triglycerides: CBD 10 mg/kg/day, FIG. 8A
Protocol: as §1
Lipid balance was assessed by evaluating the levels of low-density lipoprotein (LDL)-cholesterol, total cholesterol and triglycerides by using Cobas C111 Chemistry Analyzer (Roche, Germany).

mice = details: cited from earlier work
[4] = test system: high-fat diet-induced obese mice; experiment: Glucose and insulin homeostasis in high-fat diet-induced obese mice; format: in vivo, mouse; details: 28 days ip, CBG 25 mg/kg/day; for HFD-induced hyperglycemia (fasting blood glucose levels) / glucose tolerance (intraperitoneal glucose tolerance test) / serum insulin levels (hyperinsulinemia): CBD 10 mg/kg/day; for HFD-induced hyperglycemia (fasting blood glucose levels) / glucose tolerance (intraperitoneal glucose tolerance test): alone or combined; for HFD-induced hyperglycemia (fasting blood glucose levels): FIG. 6A; for glucose tolerance (intraperitoneal glucose tolerance test): FIG. 6B, C; for serum insulin levels (hyperinsulinemia): FIG. 7A
Protocol: as §1
Glucose and insulin homeostasis was assessed by (i) measuring fasting blood glucose (Elite glucometer, Bayer, Germany) and serum insulin (Ultra-Sensitive Mouse Insulin ELISA kit, EMD Millipore, MA) levels, (ii) evaluating Homeostatic Model Assessment for Insulin Resistance (HOMA-IR), and (iii) performing intraperitoneal glucose tolerance test.

[5] = test system: high-fat diet-induced obese mice; experiment: Antiobesity effect (fat and lean mass, EchoMRI) in high-fat diet-induced obese mice; format: in vivo, mouse; details: 28 days ip; CBG 25 mg/kg/day; FIG. 9B, C
Protocol: as §1
Antiobesity effect was assessed by measuring body weight. Total fat and lean masses were determined at the end of the treatment by EchoMRI-100 (Echo Medical Systems LLC, Houston Tex.).

For `CCCc1cc(O)c2c(c1)OC(C)(C)[C@@H]1CCC(C)=C[C@@H]21` [THCV, Δ^9-tetrahydrocannabivarin], the insulin sensitivity (obese mice) is given as “improves insulin sensitivity” and the “triglyceride (TG) accumulation within the livers” value (obese mice) is given as “decreases”.

In the case of `C=C(C)[C@@H]1CCC(C)=C[C@H]1c1c(O)cc(CCCCC)cc1O` [CBD, cannabidiol, reference compound], the weight gain (rats on high-fat diets) is listed as “inhibits weight gain”, the “lipid accumulation in hepatocytes” value [1] is listed as “significantly reduce lipid accumulation” and the “HFD-induced hepatic steatosis (liver triglyceride levels, fat vacuoles and ballooning in hepatocytes)” value [2] is listed as “significantly attenuated”. For the same compound, the serum triglycerides ([3]; CBG 25 mg/kg/day) was “Reduction”, the “development of alcohol-induced hepatosteatosis” value (mice) was “inhibits” and the “HFD-induced hyperglycemia (fasting blood glucose levels)” value [4] was “significantly normalized”. For the same compound, the “glucose tolerance (intraperitoneal glucose tolerance test)” value [4] was “significant improvement” and the “serum insulin levels (hyperinsulinemia)” value [4] was “ineffective in reducing hyperinsulinemia”.

For `CCCCCc1cc(O)c(C/C=C(\C)CCC=C(C)C)c(O)c1` [CBG, cannabigerol], the fat mass [5] was “significant reduction”, the lean mass [5] was “increased” and the “HFD-induced hepatic steatosis (liver triglyceride levels, fat vacuoles and ballooning in hepatocytes)” value [2] was “significantly attenuated”. For the same compound, the liver cholesterol levels ([2]; FIG. 5C) was “trend toward reduction”, the serum triglycerides ([3]; CBG 25 mg/kg/day) was “Reduction” and the “total circulating cholesterol levels” value ([3]; CBG 25 mg/kg/day alone or with CBD 10 mg/kg/day, FIG. 8B) was “significantly reduced”. The LDL-Cholesterol levels ([3]; CBG 25 mg/kg/day, FIG. 8C) was “significant reduction”, the “HFD-induced hyperglycemia (fasting blood glucose levels)” value [4] was “significantly normalized” and the “glucose tolerance (intraperitoneal glucose tolerance test)” value [4] was “significant improvement”. For the same compound, the “serum insulin levels (hyperinsulinemia)” value [4] was “trend toward reduction” and the HOMA-IR ([4]; FIG. 7B) was “normalization”.
